Earlier results, collected in US20090196940A1, “COMPOSITIONS AND METHODS FOR SUPPORTING HEAT SHOCK FUNCTION” (priority 2007, published 2009).

Columns and labels:
[1] = tested on: HSP70; details: mice, administration of schisandrin B
[2] = tested on: heat shock proteins / HSF1; details: in vitro, treated cells
[3] = tested on: cultured mouse skeletal cells (HSP72)

For `COc1cc2c(c(OC)c1OC)-c1c(cc3c(c1OC)OCO3)CC(C)C(C)C2` (stereo not drawn) [schisandrin B, Schisandrin B], the “production of HSP70” value [1] is given as “increase the production of HSP70”.

In the case of `C[C@@]12C[C@@]3(O)O[C@@H](O1)[C@]1(COC(=O)c4ccccc4)[C@H]3C[C@@]12O[C@@H]1O[C@H](CO)[C@@H](O)[C@H](O)[C@H]1O` [paeoniflorin, Paeoniflorin], the “levels of expression of heat shock proteins” value [2] is given as “enhanced levels of expression of heat shock proteins” and the “phosphorylation of HSF1” value [2] is given as “resulted in phosphorylation of HSF1”.

In the case of Geranylgeranylacetone, the “differentiation of myoblasts into myotubules” value [3] is listed as “facilitate the differentiation of myoblasts into myotubules”, the “expression of HSP72” value [3] is listed as “up-regulated the expression of HSP72” and the muscular protein content [3] is listed as “increased muscular protein content in a dose-dependent manner”.
